# From EP2970215B1, “PYRROLIDINE DERIVATIVES, PHARMACEUTICAL COMPOSITIONS CONTAINING THEM, AND THEIR USE IN THERAPY” (AbbVie Deutschland GmbH & Co. KG, priority 2013, dated 2014)
# Target: T1, human GlyT1c transporter (Homo sapiens, UniProt P48067)
# T1 construct: expressed in transfected cells; host or cells: CHO cells (recombinant; line hGlyT1c_5_CHO is named for the uptake assay)
# T1 sequence (P48067 1-706): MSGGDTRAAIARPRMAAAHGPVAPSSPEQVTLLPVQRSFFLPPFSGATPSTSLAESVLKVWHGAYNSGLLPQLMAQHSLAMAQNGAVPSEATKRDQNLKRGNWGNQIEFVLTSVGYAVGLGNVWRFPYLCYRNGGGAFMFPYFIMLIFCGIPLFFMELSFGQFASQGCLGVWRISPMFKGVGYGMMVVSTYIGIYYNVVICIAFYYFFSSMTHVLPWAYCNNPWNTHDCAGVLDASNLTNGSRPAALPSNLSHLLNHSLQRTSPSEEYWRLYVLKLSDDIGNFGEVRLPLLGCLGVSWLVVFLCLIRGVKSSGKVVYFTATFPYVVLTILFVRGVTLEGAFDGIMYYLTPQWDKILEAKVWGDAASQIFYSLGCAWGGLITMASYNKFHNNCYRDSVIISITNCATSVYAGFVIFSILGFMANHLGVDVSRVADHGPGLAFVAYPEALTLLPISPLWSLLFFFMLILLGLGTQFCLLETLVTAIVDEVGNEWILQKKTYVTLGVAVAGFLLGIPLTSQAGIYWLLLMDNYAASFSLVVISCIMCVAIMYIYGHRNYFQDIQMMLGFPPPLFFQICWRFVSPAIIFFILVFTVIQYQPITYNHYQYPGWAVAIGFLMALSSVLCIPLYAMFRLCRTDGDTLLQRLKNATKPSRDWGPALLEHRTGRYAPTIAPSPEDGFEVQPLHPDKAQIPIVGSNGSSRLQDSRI
# Assay: Radioligand binding assay using recombinant CHO cell membranes expressing human GlyT1
# Details: radioligand binding to human GlyT1c transporter-expressing membranes
# Excerpt: 2. Radioligand binding assays using recombinant CHO cell membranes expressing human GlyT1: […]
row,Ki [nM],SMILES
1,≤ 100,"Cn1cnc(S(=O)(=O)N2C[C@@H](NCc3ccc(C(F)(F)F)cc3Cl)[C@H](c3ccccc3F)C2)c1 (relative stereo) [Example 283, trans-N-[2-chloro-4-(trifluoromethyl)benzyl] -4-(2-fluorophenyl)-1-[(1-methyl-1H-imidazol-4-yl)sulfonyl]pyrrolidin-3-amine]"
2,≤ 100,"Cn1cnc(S(=O)(=O)N2C[C@@H](NCc3ccc(Cl)cc3Cl)[C@H](c3ccccc3Cl)C2)c1 (relative stereo) [Example 284, trans-4-(2-chlorophenyl)-N-(2,4-dichlorobenzyl)-1-[(1-methyl-1H-imidazol-4-yl)sulfonyl]pyrrolidin-3-amine]"
3,≤ 100,"Cn1cnc(S(=O)(=O)N2C[C@@H](NCc3ccc(C(F)(F)F)cc3Cl)[C@H](c3ccccc3Cl)C2)c1 (relative stereo) [Example 285, trans-4-(2-chlorophenyl)-N-[2-chloro-4-(trifluoromethyl)benzyl]-1-[(1-methyl-1H-imidazol-4-yl)sulfonyl]pyrrolidin-3-amine]"
4,≤ 10000,"Cn1cnc(S(=O)(=O)N2C[C@@H](NCc3ccc(Cl)cc3Cl)[C@H](c3cccnc3)C2)c1 (relative stereo) [Example 286, trans-N-(2,4-dichlorobenzyl)-1-[(1-methyl-1H-imidazol-4-yl)sulfonyl]-4-(pyridin-3-yl)pyrrolidin-3-amine]"
5,≤ 1000,"Cn1cnc(S(=O)(=O)N2C[C@@H](C(=O)NCc3ccccc3)[C@H](c3ccc(F)cc3)C2)c1 (relative stereo) [Example 289, Trans-N-benzyl-4-(4-fluorophenyl)-1-[(1-methyl-1H-imidazol-4-yl)sulfonyl]pyrrolidine-3-carboxamide]"
6,≤ 10000,"Cn1cnc(S(=O)(=O)N2C[C@@H](CNc3ccccc3)[C@H](c3ccc(F)cc3)C2)c1 (relative stereo) [Example 290, N-({trans-4-(4-fluorophenyl)-1-[(1-methyl-1H-imidazol-4-yl)sulfonyl]pyrrolidin-3-yl}methyl)aniline]"
7,≤ 100,"Cn1cnc(S(=O)(=O)N2C[C@@H](CNc3ccc(C(F)(F)F)cc3)[C@H](c3ccc(F)cc3)C2)c1 (relative stereo) [Example 291, N-({trans-4-(4-fluorophenyl)-1-[(1-methyl-1H-imidazol-4-yl)sulfonyl]pyrrolidin-3-yl}methyl)-4-(trifluoromethyl)aniline]"
8,≤ 1000,"Cn1cnc(S(=O)(=O)N2C[C@@H](CNc3cc(Cl)cc(Cl)c3)[C@H](c3ccc(F)cc3)C2)c1 (relative stereo) [Example 292, 3,5-dichloro-N-({trans-4-(4-fluorophenyl)-1-[(1-methyl-1H-imidazol-4-yl)sulfonyl]pyrrolidin-3-yl}methyl)aniline]"
9,≤ 100,"Cn1cnc(S(=O)(=O)N2C[C@@H](COc3cccc(C(F)(F)F)c3)[C@H](c3ccc(F)cc3)C2)c1 (relative stereo) [Example 293, 4-{[trans-3-(4-fluorophenyl)-4-{[3-(trifluoromethyl)phenoxy]methyl}pyrrolidin-1-yl]sulfonyl}-1-methyl-1H-imidazole]"
10,≤ 100,"Cn1cnc(S(=O)(=O)N2C[C@@H](COc3ccc(F)c(C(F)(F)F)c3)[C@H](c3ccc(F)cc3)C2)c1 (relative stereo) [Example 295, 4-{[trans-3-(4-fluorophenyl)-4-{[4-fluoro-3-(trifluoromethyl)phenoxy]methyl}pyrrolidin-1-yl]sulfonyl}-1-methyl-1H-imidazole]"
11,≤ 100,"Cc1cccc(OC[C@@H]2CN(S(=O)(=O)c3cn(C)cn3)C[C@H]2c2ccc(F)cc2)c1 (relative stereo) [Example 296, 4-({trans-3-(4-fluorophenyl)-4-[(3-methylphenoxy)methyl]pyrrolidin-1-yl}sulfonyl)-1-methyl-1H-imidazole]"
12,≤ 10,"Cn1cnc(S(=O)(=O)N2C[C@@H](C(=O)c3cccc(Cl)c3)[C@H](c3ccc(F)cc3)C2)c1 (relative stereo) [Example 297, (3-chlorophenyl){trans-4-(4-fluorophenyl)-1-[(1-methyl-1H-imidazol-4-yl)sulfonyl]pyrrolidin-3-yl}methanone]"
13,≤ 10,"Cn1cnc(S(=O)(=O)N2C[C@@H](Nc3ccc(F)c(OC(F)(F)F)c3)[C@H](c3ccccc3)C2)c1 (relative stereo) [Example 298, trans-N-[4-fluoro-3-(trifluoromethoxy)phenyl]-1-[(1-methyl-1H-imidazol-4-yl)sulfonyl] -4-phenylpyrrolidin-3-amine]"
14,≤ 1000,"Cn1cnc(S(=O)(=O)N2C[C@@H](Nc3ccc(Cl)c(OC(F)(F)F)c3)[C@H](c3ccccc3)C2)c1 (relative stereo) [Example 299, trans-N-[4-chloro-3-(trifluoromethoxy)phenyl]-1-[(1-methyl-1H-imidazol-4-yl)sulfonyl]-4-phenylpyrrolidin-3-amine]"
15,≤ 1000,"Cc1cccc(C(=O)[C@@H]2CN(S(=O)(=O)c3cn(C)cn3)C[C@H]2c2ccc(F)cc2)c1 (relative stereo) [Example 300, {trans-4-(4-fluorophenyl)-1-[(1-methyl-1H-imidazol-4-yl)sulfonyl]pyrrolidin-3-yl}(3-methylphenyl)methanone]"
16,≤ 100,"Cn1cnc(S(=O)(=O)N2C[C@@H](C(=O)c3cccc(C(F)(F)F)c3)[C@H](c3ccc(F)cc3)C2)c1 (relative stereo) [Example 302, {trans-4-(4-fluorophenyl)-1-[(1-methyl-1H-imidazol-4-yl)sulfonyl]pyrrolidin-3-yl}[3-(trifluoromethyl)phenyl]methanone]"
17,≤ 1000,"Cn1cnc(S(=O)(=O)N2C[C@@H](C(=O)Nc3cccc(Cl)c3)[C@H](c3ccc(F)cc3)C2)c1 (relative stereo) [Example 304, trans-N-(3-chlorophenyl)-4-(4-fluorophenyl)-1-[(1-methyl-1H-imidazol-4-yl)sulfonyl]pyrrolidine-3-carboxamide]"
18,≤ 100,"Cn1cnc(S(=O)(=O)N2C[C@@H](Nc3ccc(Cl)c(OC(F)(F)F)c3)[C@H](c3ccc(F)cc3)C2)c1 (relative stereo) [Example 306, trans-N-[4-chloro-3-(trifluoromethoxy)phenyl]-4-(4-fluorophenyl)-1-[(1-methyl-1H-imidazol-4-yl)sulfonyl]pyrrolidin-3-amine]"
19,≤ 100,"Cn1cnc(S(=O)(=O)N2C[C@@H](NCc3ccc(Cl)cc3Cl)[C@H](c3ccccn3)C2)c1 (relative stereo) [Example 307, trans-N-(2,4-dichlorobenzyl)-1-[(1-methyl-1H-imidazol-4-yl)sulfonyl]-4-(pyridin-2-yl)pyrrolidin-3-amine]"
20,≤ 1000,"Cn1cnc(S(=O)(=O)N2C[C@@H](CNc3ccc(F)c(C(F)(F)F)c3)[C@H](c3ccc(F)cc3)C2)c1 (relative stereo) [Example 313, 4-fluoro-N-({trans-4-(4-fluorophenyl)-1-[(1-methyl-1H-imidazol-4-yl)sulfonyl]pyrrolidin-3-yl}methyl)-3-(trifluoromethyl)aniline]"
21,≤ 1000,"Cn1cnc(S(=O)(=O)N2C[C@@H](CNCc3ccccc3)[C@H](c3ccc(F)cc3)C2)c1 (relative stereo) [Example 315, N-benzyl-1-{trans-4-(4-fluorophenyl)-1-[(1-methyl-1H-imidazol-4-yl)sulfonyl]pyrrolidin-3-yl}methanamine]"
22,≤ 1000,"Cc1cccc(NC(=O)[C@@H]2CN(S(=O)(=O)c3cn(C)cn3)C[C@H]2c2ccc(F)cc2)c1 (relative stereo) [Example 316, trans-4-(4-fluorophenyl)-1-[(1-methyl-1H-imidazol-4-yl)sulfonyl]-N-(3-methylphenyl)pyrrolidine-3-carboxamide]"
23,≤ 1000,"Cn1cnc(S(=O)(=O)N2C[C@@H](C(=O)Nc3cccc(C(F)(F)F)c3)[C@H](c3ccc(F)cc3)C2)c1 (relative stereo) [Example 317, Trans-4-(4-fluorophenyl)-1-[(1-methyl-1H-imidazol-4-yl)sulfonyl]-N-[3-(trifluoromethyl)phenyl]pyrrolidine-3-carboxamide]"

row,SMILES,Ki [nM]
1,"Cn1cnc(S(=O)(=O)N2C[C@@H](COc3ccc(C(F)(F)F)cc3Cl)[C@H](c3ccc(F)cc3)C2)c1 (relative stereo) [Example 294, 4-{[trans-3-{[2-chloro-4-(trifluoromethyl)phenoxy]methyl}-4-(4-fluorophenyl)pyrrolidin-1-yl]sulfonyl}-1-methyl-1H-imidazole]",≤ 10
2,"Cn1cnc(S(=O)(=O)N2C[C@@H](CNc3ccc(C(F)(F)F)c(Cl)c3)[C@H](c3ccc(F)cc3)C2)c1 (relative stereo) [Example 311, 3-chloro-N-({trans-4-(4-fluorophenyl)-1-[(1-methyl-1H-imidazol-4-yl)sulfonyl]pyrrolidin-3-yl}methyl)-4-(trifluoromethyl)aniline]",≤ 1000
3,"Cn1cnc(S(=O)(=O)N2C[C@@H](CNc3ccc(F)c(Cl)c3)[C@H](c3ccc(F)cc3)C2)c1 (relative stereo) [Example 314, 3-chloro-4-fluoro-N-({trans-4-(4-fluorophenyl)-1-[(1-methyl-1H-imidazol-4-yl)sulfonyl]pyrrolidin-3-yl}methyl)aniline]",≤ 1000
